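Assay format: 96-well plates, 48-hour exposure. TGI marks complete inhibition of growth.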
Columns and labels:
Assay in all cases: DTP human tumour cell line panel, 48 h
SN12C renal = system: SN12C renal
SNB-19 CNS = system: SNB-19 CNS
OVCAR-3 ovarian = system: OVCAR-3 ovarian
SW-620 colon = system: SW-620 colon
K-562 leukemia = system: K-562 leukemia
LOX IMVI melanoma = system: LOX IMVI melanoma
DMS 114 small cell lung = system: DMS 114 small cell lung
NCI-H460 lung = system: NCI-H460 lung
KM12 colon = system: KM12 colon
KM20L2 colon = system: KM20L2 colon
CCRF-CEM leukemia = system: CCRF-CEM leukemia
HOP-62 NSCLC = system: HOP-62 NSCLC
SK-MEL-28 melanoma = system: SK-MEL-28 melanoma
DMS 273 small cell lung = system: DMS 273 small cell lung
M14 melanoma = system: M14 melanoma
ACHN renal = system: ACHN renal
SF-268 CNS = system: SF-268 CNS
COLO 205 colon = system: COLO 205 colon
OVCAR-8 ovarian = system: OVCAR-8 ovarian
HCT-116 colon = system: HCT-116 colon
786-0 renal = system: 786-0 renal
UACC-62 melanoma = system: UACC-62 melanoma
NCI-H23 lung = system: NCI-H23 lung
MALME-3M melanoma = system: MALME-3M melanoma
SF-295 CNS = system: SF-295 CNS
UACC-257 melanoma = system: UACC-257 melanoma
RXF 393 renal = system: RXF 393 renal
RPMI-8226 leukemia = system: RPMI-8226 leukemia
LXFL 529 NSCLC = system: LXFL 529 NSCLC
UO-31 renal = system: UO-31 renal
HT29 colon = system: HT29 colon
U251 CNS = system: U251 CNS
HCT-15 colon = system: HCT-15 colon
SK-OV-3 ovarian = system: SK-OV-3 ovarian
HL-60(TB) leukemia = system: HL-60(TB) leukemia
A549 NSCLC = system: A549 NSCLC
SNB-78 CNS = system: SNB-78 CNS
NCI-H522 lung = system: NCI-H522 lung
SNB-75 CNS = system: SNB-75 CNS
NCI-H226 lung = system: NCI-H226 lung
DLD-1 colon = system: DLD-1 colon
M19-MEL melanoma = system: M19-MEL melanoma
TK-10 renal = system: TK-10 renal
SR leukemia = system: SR leukemia
IGROV1 ovarian = system: IGROV1 ovarian
EKVX NSCLC = system: EKVX NSCLC
MOLT-4 leukemia = system: MOLT-4 leukemia
SF-539 CNS = system: SF-539 CNS
HCC-2998 colon = system: HCC-2998 colon
SK-MEL-5 melanoma = system: SK-MEL-5 melanoma
HOP-18 NSCLC = system: HOP-18 NSCLC
XF 498 CNS = system: XF 498 CNS
OVCAR-5 ovarian = system: OVCAR-5 ovarian
OVCAR-4 ovarian = system: OVCAR-4 ovarian
SK-MEL-2 melanoma = system: SK-MEL-2 melanoma
HOP-92 NSCLC = system: HOP-92 NSCLC
A498 renal = system: A498 renal
CAKI-1 renal = system: CAKI-1 renal

## Cn1c(=O)c(C(=O)NC23CC4CC(CC(C4)C2)C3)c(O)c2ccccc21
SN12C renal
  TGI: 54.8 µM
SNB-19 CNS
  TGI: 43.9 µM
OVCAR-3 ovarian
  TGI: 63 µM
SW-620 colon
  TGI: > 100000 nM
K-562 leukemia
  TGI: > 100 µM
LOX IMVI melanoma
  TGI: > 100000 nM
DMS 114 small cell lung
  TGI: > 100 µM
NCI-H460 lung
  TGI: 51.1 µM
KM12 colon
  TGI: > 100000 nM
KM20L2 colon
  TGI: > 100000 nM
CCRF-CEM leukemia
  TGI: > 100000 nM
HOP-62 NSCLC
  TGI: 43.6 µM
SK-MEL-28 melanoma
  TGI: > 100000 nM
DMS 273 small cell lung
  TGI: 64.3 µM
M14 melanoma
  TGI: > 100000 nM
ACHN renal
  TGI: 42.9 µM
SF-268 CNS
  TGI: > 100000 nM
COLO 205 colon
  TGI: > 100000 nM
OVCAR-8 ovarian
  TGI: 64.1 µM
HCT-116 colon
  TGI: 57.9 µM
786-0 renal
  TGI: 30.3 µM
UACC-62 melanoma
  TGI: > 100000 nM
NCI-H23 lung
  TGI: > 100000 nM
MALME-3M melanoma
  TGI: 44.7 µM
SF-295 CNS
  TGI: 57.4 µM
UACC-257 melanoma
  TGI: > 100000 nM
RXF 393 renal
  TGI: 35.9 µM
RPMI-8226 leukemia
  TGI: > 100000 nM
LXFL 529 NSCLC
  TGI: > 100000 nM
UO-31 renal
  TGI: > 100000 nM
HT29 colon
  TGI: 48.1 µM
U251 CNS
  TGI: 59.7 µM
HCT-15 colon
  TGI: > 100000 nM
SK-OV-3 ovarian
  TGI: 73.4 µM
HL-60(TB) leukemia
  TGI: > 100000 nM
A549 NSCLC
  TGI: > 100000 nM
SNB-78 CNS
  TGI: > 100 µM
NCI-H522 lung
  TGI: > 100000 nM
SNB-75 CNS
  TGI: 83.8 µM
NCI-H226 lung
  TGI: 48.4 µM
DLD-1 colon
  TGI: > 100000 nM
M19-MEL melanoma
  TGI: > 100000 nM
TK-10 renal
  TGI: 48 µM
SR leukemia
  TGI: > 100000 nM
IGROV1 ovarian
  TGI: 95.6 µM
EKVX NSCLC
  TGI: > 100000 nM
MOLT-4 leukemia
  TGI: > 100000 nM
SF-539 CNS
  TGI: > 100000 nM

## CN(C)CCNC(=O)c1cccc2cc3ccc4ccccc4c3nc12
SN12C renal
  TGI: 0.818 µM
SNB-19 CNS
  TGI: 0.919 µM
HCC-2998 colon
  TGI: 252 nM
OVCAR-3 ovarian
  TGI: 0.738 µM
SW-620 colon
  TGI: 1190 nM
SK-MEL-5 melanoma
  TGI: 358 nM
K-562 leukemia
  TGI: > 100 µM
HOP-18 NSCLC
  TGI: 665 nM
XF 498 CNS
  TGI: 237 nM
LOX IMVI melanoma
  TGI: 256 nM
NCI-H460 lung
  TGI: 0.163 µM
KM12 colon
  TGI: 1200 nM
OVCAR-5 ovarian
  TGI: 706 nM
KM20L2 colon
  TGI: 988 nM
CCRF-CEM leukemia
  TGI: 267 nM
HOP-62 NSCLC
  TGI: 0.309 µM
SK-MEL-28 melanoma
  TGI: 593 nM
DMS 273 small cell lung
  TGI: 0.163 µM
OVCAR-4 ovarian
  TGI: 752 nM
M14 melanoma
  TGI: 410 nM
ACHN renal
  TGI: 0.0561 µM
SF-268 CNS
  TGI: 1200 nM
COLO 205 colon
  TGI: 250 nM
OVCAR-8 ovarian
  TGI: 0.316 µM
HCT-116 colon
  TGI: 1.05 µM
786-0 renal
  TGI: 1.37 µM
UACC-62 melanoma
  TGI: 230 nM
SK-MEL-2 melanoma
  TGI: 406 nM
NCI-H23 lung
  TGI: 390 nM
MALME-3M melanoma
  TGI: 0.76 µM
HOP-92 NSCLC
  TGI: 593 nM
SF-295 CNS
  TGI: 0.886 µM
UACC-257 melanoma
  TGI: 535 nM
RXF 393 renal
  TGI: 0.267 µM
RPMI-8226 leukemia
  TGI: 527 nM
LXFL 529 NSCLC
  TGI: 665 nM
UO-31 renal
  TGI: 218 nM
HT29 colon
  TGI: 0.701 µM
U251 CNS
  TGI: 0.663 µM
HCT-15 colon
  TGI: 593 nM
A498 renal
  TGI: 69.3 nM
SK-OV-3 ovarian
  TGI: 0.679 µM
HL-60(TB) leukemia
  TGI: 270 nM
A549 NSCLC
  TGI: 560 nM
SNB-78 CNS
  TGI: 12.5 µM
NCI-H522 lung
  TGI: 280 nM
CAKI-1 renal
  TGI: 2140 nM
SNB-75 CNS
  TGI: 0.399 µM
NCI-H226 lung
  TGI: 0.488 µM
DLD-1 colon
  TGI: 817 nM
M19-MEL melanoma
  TGI: 235 nM
TK-10 renal
  TGI: 0.904 µM
SR leukemia
  TGI: 147 nM
IGROV1 ovarian
  TGI: 1.05 µM
EKVX NSCLC
  TGI: 495 nM
MOLT-4 leukemia
  TGI: 67.8 nM
SF-539 CNS
  TGI: 390 nM
